From patent US11654203B2

Key:
[1] = test system: human colorectal cancer cells (HCT15); test: NanoSPECT/CT imaging of colorectal cancer animal model; type: in vivo, BALB/c nude mouse; conditions: caudal vein, 25 mCi/kg, imaged at 2, 4, 24, 48 h
Experimental: (1) Each BALB/c nude mouse that was 8 weeks old was subjected to subcutaneous injection of human colorectal cancer cells (HCT15, 1*10^6 cells) on a right hind leg, grew for 10-14 d, and started to be dosed with the drug when a cell tumor grew to a size of 50-100 mm^3.
(3) NanoSPECT/CT image analysis was carried out at 2nd h, 4th h, 24th h and 48th h after animal dosage (brand: Mediso).
(4) Obtained images were subjected to image recombination and outputting by VivoQuamt software.

[2] = test system: human colorectal cancer cells (HCT15); test: Colorectal cancer animal bio-distribution (gamma counter); type: in vivo, BALB/c nude mouse; conditions: 25 mCi/kg, n=3

- tumor absorbability ([2]; 2nd h after caudal vein dosage): 0.88 % ID/g
- gathering degree at the tumor hypoxia position ([2]; 24th h after caudal vein dosage): 1.08 % ID/g
SMILES: O=C([O-])CN1CCN(CC(=O)[O-])CCN(CC(=O)[O-])CCN(CC(=O)[O-])CC1.[111In+3] [^111In-DOTA]
- drug gathering at tumor hypoxia position, nanoSPECT/CT [1]: no obvious drug gathering phenomenon
